Like-named read-outs stand apart in the source and are kept apart here. Positions of bridges follow the written chain, without caps; N, C: chain ends. Non-standard residues stand in square brackets, D forms with d.
How the values were obtained:
N36 peptide = biological target: T1, N36 peptide (Human immunodeficiency virus type 1 group M subtype B, UniProt P04578); format: physicochemical, HIV-1; conditions: for Tm (apparent melting temperature) of N36/C34 complex: C34 peptide 10 μM + N36 10 μM, phosphate-buffered saline pH 7.0, CD signal at 222 nm; for mean residue ellipticity [θ]222 of N36/C34 complex: CD at 222 nm, 0° C., PBS pH 7.0
T1 construct: made in house; host or cells: chemical peptide synthesis
T1 sequence (P04578 546-581): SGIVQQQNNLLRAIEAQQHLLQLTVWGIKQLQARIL
Protocol: CD measurements were performed in phosphate-buffered saline (50 mM sodium phosphate, 150 mM NaCl, pH 7.0) with an Aviv Model 62DS spectrometer as previously described (M. Lu, S. C. Blacklow, P. S. Kim, Nat. Struct. Biol., 2:1075 (1995)). The apparent melting temperature of each complex was estimated from the maximum of the first derivative of [θ]222 with respect to temperature.
(§1) The apparent melting temperatures (Tm) were estimated from the thermal dependence of the CD signal at 222 nm. Inhibition of viral entry was measured in a cell-culture infection assay using recombinant luciferase-expressing HIV-1. Inhibition of cell-cell fusion was measured in a syncytium assay. The means and standard errors are from triplicate trials.

[1] = system: recombinant luciferase-expressing HIV-1; format: cell-based; conditions: for IC50: recombinant luciferase-expressing HIV-1, mean ± standard error, triplicate, read-out: IC50 viral entry
Protocol: The potency of C34 peptides in inhibiting viral infection and the HIV-1 infection inhibitory activity of the D-peptides were assayed using recombinant luciferase-expressing HIV-1 (Chen, B. K. et al., J. Virol., 68:654 (1994); Malashkevich, V. N., et al., Proc. Natl. Acad. Sci., USA, 95:9134 (1998)).
as §1

[2] = system: syncytia formation between Chinese hamster ovary cell expressing HXB2 envelope and HeLa-CD4-LTR-Beta-gal cells
Protocol: In each instance, a blocking group (e.g., an acetyl group) was present at the N terminus and a CONH2 (amide) was present at the C-terminus.
Inhibition of cell/cell fusion (i.e., syncytia formation) was assayed by co-culturing Chinese hamster ovary cell expressing HXB2 envelope (K. Kozarsky, et al., J. Acquir. Immune. Defic. Syndr., 2:163 (1989) and the HeLa-CD4-LTR-Beta-gal cells (M. Emerman, NIH AIDS Reagent program) in the presence of varying concentration of peptide. When mixed, these cells form syncytia, or multi-nucleated cells, which express β-galactosidase. Approximately twenty hours after co-culturing the cells, the monolayers were stained with 5-bromo-4-chloro-3-indolyl-β-D-galactoside to visualize the syncytia. The syncytia are visualized with a microscope and counted manually (a syncytia is scored as a fused cell containing three or more nuclei). The IC50 was calculated from fitting the data to a Langmuir equation [y=k/(1+[peptide]/IC50)+x], where y=number of syncytia and k and x are scaling constants.

[3] = read-out: IC50 cell fusion, syncytium assay, mean ± standard error, triplicate

“Ac-WMELDREINNYTSLIHSLIEESQNQQEKNEQELL-NH2 [Trp^631→Leu]” was tested, and the “Tm (apparent melting temperature) of N36/C34 complex” value (“Tm (apparent melting temperature)” for short) (N36 peptide) was 50 °C, the “mean residue ellipticity [θ]222 of N36/C34 complex” value (“mean residue ellipticity” below) (N36 peptide) was −26.7 10^3 deg cm^2 dmol^−1 and the IC50 [1] was 5.3 ± 1 nM. The IC50 [2, 3] was 3.2 ± 0.1 nM.

In the case of “Ac-WMEWDAEINNYTSLIHSLIEESQNQQEKNEQELL-NH2 [Arg^633→Ala]”, the “Tm (apparent melting temperature)” value (N36 peptide) is reported as 65 °C, the “mean residue ellipticity” value (N36 peptide) is reported as −30.7 10^3 deg cm^2 dmol^−1 and the “effect of mutation on inhibitory activity of C34” value ([1]; HIV-1 viral entry and syncytium assays, vs wildtype C34) is reported as “little effect”. For the same molecule, the IC50 [1] was 2.6 ± 0.89 nM and the IC50 [2, 3] was 0.76 ± 0.07 nM.

In the case of “Ac-KKKKGACELLGWEWAWLCAA-CONH2 (Ac-KKKKG[dA][dC][dE][dL][dL]G[dW][dE][dW][dA][dW][dL][dC][dA][dA]-NH2; disulfide 7-18 (inferred); not fully specified (residues 1, 2, 3, 4); printed as Ac-KKKKGACELLGWEWAWLCAA-CONH2) [Peptide D10pep5a]”, the “IC50 for inhibition of syncytia formation relative to parent peptide without the added lysines” value ([2]; two additional N-terminal lysines vs parent D-peptide) is reported as “approximately 2 fold”.

“Ac-WMEVDREINNYTSLIHSLIEESQNQQEKNEQELL-NH2 [Trp^631→Val]” was tested, and the “Tm (apparent melting temperature)” value (N36 peptide) was 43 °C, the “mean residue ellipticity” value (N36 peptide) was −23.9 10^3 deg cm^2 dmol^−1 and the IC50 [1] was 13 ± 12.8 nM. For the same molecule, the IC50 [2, 3] was 4.5 ± 0.09 nM.

In the case of `CC[C@H](C)[C@H](NC(=O)[C@H](CC(C)C)NC(=O)[C@H](CO)NC(=O)[C@H](Cc1c[nH]cn1)NC(=O)[C@@H](NC(=O)[C@H](CC(C)C)NC(=O)[C@H](CO)NC(=O)[C@@H](NC(=O)[C@H](Cc1ccc(O)cc1)NC(=O)[C@H](CC(N)=O)NC(=O)[C@H](CC(N)=O)NC(=O)[C@@H](NC(=O)[C@H](CCC(=O)O)NC(=O)[C@H](CCCNC(=N)N)NC(=O)[C@H](CC(=O)O)NC(=O)[C@H](C)NC(=O)[C@H](CCC(=O)O)NC(=O)[C@H](CCSC)NC(=O)[C@H](Cc1c[nH]c2ccccc12)NC(C)=O)[C@@H](C)CC)[C@@H](C)O)[C@@H](C)CC)C(=O)N[C@@H](CCC(=O)O)C(=O)N[C@@H](CCC(=O)O)C(=O)N[C@@H](CO)C(=O)N[C@@H](CCC(N)=O)C(=O)N[C@@H](CC(N)=O)C(=O)N[C@@H](CCC(N)=O)C(=O)N[C@@H](CCC(N)=O)C(=O)N[C@@H](CCC(=O)O)C(=O)N[C@@H](CCCCN)C(=O)N[C@@H](CC(N)=O)C(=O)N[C@@H](CCC(=O)O)C(=O)N[C@@H](CCC(N)=O)C(=O)N[C@@H](CCC(=O)O)C(=O)N[C@@H](CC(C)C)C(=O)N[C@@H](CC(C)C)C(N)=O` [Trp^631→Ala], the “Tm (apparent melting temperature)” value (N36 peptide) is reported as 37 °C, the “mean residue ellipticity” value (N36 peptide) is reported as −24.9 10^3 deg cm^2 dmol^−1 and the IC50 [1] is reported as 40 ± 4.3 nM.

In the case of `CC(=O)N[C@H](CCCCN)C(=O)N[C@H](CCCCN)C(=O)NCC(=O)N[C@H](C)C(=O)N[C@@H]1CSSC[C@H](C(=O)N[C@H](C)C(=O)N[C@H](C)C(N)=O)NC(=O)[C@@H](CC(C)C)NC(=O)[C@@H](Cc2c[nH]c3ccccc23)NC(=O)[C@@H](C)NC(=O)[C@@H](Cc2c[nH]c3ccccc23)NC(=O)[C@@H](CCC(=O)O)NC(=O)[C@@H](Cc2c[nH]c3ccccc23)NC(=O)CNC(=O)[C@@H](CC(C)C)NC(=O)[C@@H](CC(C)C)NC(=O)[C@@H](CCC(=O)O)NC1=O` [Peptide D10pep5], the “inhibition of infection of cells” value ([1]; infectivity assay) is reported as “inhibit infection of cells” and the IC50 ([2]; read-out: IC50 syncytia formation, D-peptide, N-terminal acetyl, C-terminal amide) is reported as roughly 6000 nM.

“Ac-WMEWDREANNYTSLIHSLIEESQNQQEKNEQELL-NH2 [Ile^635→Ala]” was tested, and the “Tm (apparent melting temperature)” value (N36 peptide) was 55 °C, the “mean residue ellipticity” value (N36 peptide) was −25.9 10^3 deg cm^2 dmol^−1 and the “decrease in inhibitory activity relative to wildtype C34” value ([1]; HIV-1 viral entry and syncytium assays) was roughly 2 fold. For the same molecule, the IC50 [1] was 4.1 ± 0.91 nM and the IC50 [2, 3] was 0.96 ± 0.12 nM.

For “Ac-WMEFDREINNYTSLIHSLIEESQNQQEKNEQELL-NH2 [Trp^631→Phe]”, the “Tm (apparent melting temperature)” value (N36 peptide) was 59 °C, the “mean residue ellipticity” value (N36 peptide) was −26.3 10^3 deg cm^2 dmol^−1 and the IC50 [1] was 3.61 ± 0.8 nM. It also gave an IC50 [2, 3] of 1.6 ± 0.05 nM.

With “Ac-WMEGDREINNYTSLIHSLIEESQNQQEKNEQELL-NH2 [Trp^631→Gly]” the “Tm (apparent melting temperature)” value (N36 peptide) was 35 °C, the “mean residue ellipticity” value (N36 peptide) was 17.1 10^3 deg cm^2 dmol^−1 and the IC50 [1] was 38 ± 6.1 nM. For the same molecule, the IC50 [2, 3] was 25 ± 3.8 nM.

In the case of `CC[C@H](NC(=O)[C@H](CCC(=O)O)NC(=O)[C@H](CCSC)NC(=O)[C@H](Cc1c[nH]c2ccccc12)NC(C)=O)C(=O)N[C@@H](CC(=O)O)C(=O)N[C@@H](CCCNC(=N)N)C(=O)N[C@@H](CCC(=O)O)C(=O)N[C@H](C(=O)N[C@@H](CC(N)=O)C(=O)N[C@@H](CC(N)=O)C(=O)N[C@@H](Cc1ccc(O)cc1)C(=O)N[C@H](C(=O)N[C@@H](CO)C(=O)N[C@@H](CC(C)C)C(=O)N[C@H](C(=O)N[C@@H](Cc1c[nH]cn1)C(=O)N[C@@H](CO)C(=O)N[C@@H](CC(C)C)C(=O)N[C@H](C(=O)N[C@@H](CCC(=O)O)C(=O)N[C@@H](CCC(=O)O)C(=O)N[C@@H](CO)C(=O)N[C@@H](CCC(N)=O)C(=O)N[C@@H](CC(N)=O)C(=O)N[C@@H](CCC(N)=O)C(=O)N[C@@H](CCC(N)=O)C(=O)N[C@@H](CCC(=O)O)C(=O)N[C@@H](CCCCN)C(=O)N[C@@H](CC(N)=O)C(=O)N[C@@H](CCC(=O)O)C(=O)N[C@@H](CCC(N)=O)C(=O)N[C@@H](CCC(=O)O)C(=O)N[C@@H](CC(C)C)C(=O)N[C@@H](CC(C)C)C(N)=O)[C@@H](C)CC)[C@@H](C)CC)[C@@H](C)O)[C@@H](C)CC` [Trp^631→Abu], the “Tm (apparent melting temperature)” value (N36 peptide) is reported as 43 °C and the “mean residue ellipticity” value (N36 peptide) is reported as −23.2 10^3 deg cm^2 dmol^−1.

— US6841657B2, “Inhibitors of HIV membrane fusion” (priority 1998, dated 2005)
